# Read-outs that look alike come from different tables or passages of the source.
# What was measured:
# DAT = biological target: T1, DAT (Homo sapiens, UniProt Q01959); conditions: cited from earlier work
# T1 construct: from tissue; host or cells: striatum of healthy male volunteers, in vivo PET
# PWS patients = conditions: standard mg/day dosing, cited from earlier work
# [1] = biological target: T2, Transporter, Dopamine (DAT) (Homo sapiens, UniProt Q01959); experiment: Radioligand binding, Transporter, Dopamine (DAT) (Eurofin Discovery 220320); conditions: for DAT, %inhibition 10 nM: 10 nM compound; for inhibition at 0.1 µM / DAT, %inhibition 100 nM: 100 nM compound
# T2 construct: host or cells: CHO-S cells
# [2] = biological target: T3, Transporter, Norepinephrine (NET) (Homo sapiens, UniProt P23975); experiment: Radioligand binding, Transporter, Norepinephrine (NET) (Eurofin Discovery 204410)
# T3 construct: host or cells: MDCK cells
# MCHR1 [3] = biological target: T4, MCHR1 (Homo sapiens, UniProt Q99705); parameters: host or cells: CHO-K1 cells; conditions: radioligand, Historical Values; cited from earlier work
# Target sequence in this assay (Q99705 whole entry): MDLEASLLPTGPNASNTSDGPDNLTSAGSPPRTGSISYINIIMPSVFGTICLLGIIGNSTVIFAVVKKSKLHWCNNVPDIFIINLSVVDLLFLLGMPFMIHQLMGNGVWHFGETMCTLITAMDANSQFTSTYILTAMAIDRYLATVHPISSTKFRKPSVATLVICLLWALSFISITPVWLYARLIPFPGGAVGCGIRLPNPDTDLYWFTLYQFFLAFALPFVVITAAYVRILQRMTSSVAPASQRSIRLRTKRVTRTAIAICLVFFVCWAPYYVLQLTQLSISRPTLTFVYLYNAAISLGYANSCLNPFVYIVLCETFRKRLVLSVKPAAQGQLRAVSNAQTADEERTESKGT
# [4] = biological target: T2, Transporter, Dopamine (DAT); conditions: radioligand, Historical Values; cited from earlier work
# [5] = biological target: T3, Transporter, Norepinephrine (NET); conditions: radioligand, Historical Values; cited from earlier work
# NET = NET (Homo sapiens, UniProt P23975); conditions: at efficacious doses; cited from earlier work
# MCHR1 [6] = biological target: T4, MCHR1; experiment: MCHR1 pharmacology of the N-acetyl metabolite
# Source text: By substituting the hydrogens with deuterium on the carbon(s) adjacent to the nitrogen which is acetylated (see for example, Examples 5 to 7), acetylation process can be slowed down to reduce the formation of this metabolite.
# Target sequence in this assay (Q99705 whole entry, species assumed): as the sequence (Q99705 whole entry) above
# T1 sequence (Q01959 whole entry): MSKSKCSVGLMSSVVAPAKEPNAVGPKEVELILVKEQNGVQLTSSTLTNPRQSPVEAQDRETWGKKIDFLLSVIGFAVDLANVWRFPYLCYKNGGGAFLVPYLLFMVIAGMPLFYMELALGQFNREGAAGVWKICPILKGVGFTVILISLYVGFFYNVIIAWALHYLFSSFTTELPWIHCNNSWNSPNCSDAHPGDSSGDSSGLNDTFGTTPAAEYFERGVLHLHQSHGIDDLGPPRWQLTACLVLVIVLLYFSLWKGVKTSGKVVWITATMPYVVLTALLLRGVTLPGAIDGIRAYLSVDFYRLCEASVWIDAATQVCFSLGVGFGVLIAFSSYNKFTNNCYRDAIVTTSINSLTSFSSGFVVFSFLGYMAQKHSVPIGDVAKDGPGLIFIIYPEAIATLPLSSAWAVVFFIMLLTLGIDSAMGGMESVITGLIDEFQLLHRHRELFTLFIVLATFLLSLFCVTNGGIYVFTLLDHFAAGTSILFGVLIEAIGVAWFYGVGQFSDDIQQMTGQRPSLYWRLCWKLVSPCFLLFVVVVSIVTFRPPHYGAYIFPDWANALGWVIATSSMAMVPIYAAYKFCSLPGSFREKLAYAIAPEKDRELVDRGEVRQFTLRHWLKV
# T2 sequence (Q01959 whole entry): as above
# T3 sequence (P23975 whole entry): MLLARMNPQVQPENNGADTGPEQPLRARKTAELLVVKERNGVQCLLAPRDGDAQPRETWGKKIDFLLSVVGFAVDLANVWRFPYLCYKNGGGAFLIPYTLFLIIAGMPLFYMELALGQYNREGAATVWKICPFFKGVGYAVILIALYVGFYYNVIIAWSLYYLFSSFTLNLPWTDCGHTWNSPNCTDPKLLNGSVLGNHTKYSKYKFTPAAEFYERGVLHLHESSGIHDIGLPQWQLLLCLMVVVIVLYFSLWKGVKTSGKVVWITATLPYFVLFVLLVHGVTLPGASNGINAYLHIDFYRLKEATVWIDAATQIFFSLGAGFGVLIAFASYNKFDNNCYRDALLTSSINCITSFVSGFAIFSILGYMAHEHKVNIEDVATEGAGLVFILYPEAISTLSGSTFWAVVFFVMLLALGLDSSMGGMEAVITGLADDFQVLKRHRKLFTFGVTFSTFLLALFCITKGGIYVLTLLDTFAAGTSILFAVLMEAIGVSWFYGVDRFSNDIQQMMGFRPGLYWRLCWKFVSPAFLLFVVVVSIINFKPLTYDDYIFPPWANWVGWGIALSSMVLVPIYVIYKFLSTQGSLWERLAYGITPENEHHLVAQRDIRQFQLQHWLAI
# Chain of NET (P23975 whole entry): as above
compound,measurement,setting,value
CCOC[C@@H]1[C@@H](c2ccc(Cl)c(Cl)c2)C[C@@H]2CC[C@H]1N2C [tesofensine],DAT occupancy,DAT; suggested as the optimal weight loss doses,50%-70%
same,hyperphagia,PWS patients; PWS patients with the appropriate plasma drug level,controlled completely
same,patients with plasma drug levels exceeding the safety levels who discontinued due to adverse events,PWS patients; PWS patients,⅔
same,efficacy,PWS patients; lowering the dosing for all patients,no efficacy
"[2H]C1([2H])NCc2cc(-c3ccc4ncnn4c3)ccc2C1([2H])c1ccc(Cl)c(Cl)c1 (single isomer, unassigned) [Compound 16A, 7-([1,2,4]triazolo[1,5-a]pyridin-6-yl)-4-(3,4-dichlorophenyl)-1,2,3,4-tetrahydroisoquinoline-3,3,4-d3]","DAT, %inhibition 10 nM",[1],47%
same,inhibition at 0.1 µM,[1],91%
same,inhibition at 0.01 µM,[2]; 10 nM compound,38%
same,inhibition at 0.1 µM,[2]; 100 nM compound,83%
"[2H]C1([2H])NC([2H])([2H])C([2H])(c2ccc(Cl)c(Cl)c2)c2ccc(-c3ccc4ncnn4c3)cc21 (single isomer, unassigned) [Compound 8A, 7-([1,2,4]triazolo[1,5-a]pyridin-6-yl)-4-(3,4-dichlorophenyl)-1,2,3,4-tetrahydroisoquinoline-1,1,3,3,4-d5]","DAT, %inhibition 10 nM",[1],44%
"[2H]C1([2H])NCc2cc(-c3ccc4ncnn4c3)ccc2C1([2H])c1ccc(Cl)c(Cl)c1 (single isomer, unassigned) [Compound 16B, 7-([1,2,4]triazolo[1,5-a]pyridin-6-yl)-4-(3,4-dichlorophenyl)-1,2,3,4-tetrahydroisoquinoline-3,3,4-d3]","DAT, %inhibition 10 nM",[1],-2%
COC(=O)C(c1ccccc1)C1CCCCN1 (centres unmarked) [Methylphenidate],Highest Occupancy DAT,DAT; at efficacious doses,74% (Methylphenidate)
same,DAT occupancy,DAT; at various approved doses,40-74%
[^125I] Tyr-S36057,Kd,MCHR1 [3],0.1 nM
COC(=O)[C@H]1[C@@H](c2ccc(I)cc2)C[C@@H]2CC[C@H]1N2C [[^125I] RTI-55],Kd,[4],0.58 nM
same,Kd,[5],24 nM
COc1ccc(C(CN(C)C)C2(O)CCCCC2)cc1 (centres unmarked) [Venlafaxine],Highest Occupancy NET,NET,61% (Venlafaxine)
same,Lowest Occupancy NET,NET,8% (Venlafaxine)
same,NET occupancies,NET,8-61%
"CC(=O)N1CCc2c(c3ccc(-n4ccc(OCc5ccc(F)cn5)cc4=O)cc3n2C)C1 [1-(2-acetyl-5-methyl-2,3,4,5-tetrahydro-1H-pyrido[4,3-b]indol-7-yl)-4-((5-fluoropyridin-2-yl)methoxy)pyridin-2(1H)-one]",contribution to MCHR1 antagonism,MCHR1 [6],does not contribute to the pharmacology of MCHR1 antagonism
"[2H]C1([2H])NCC(c2ccc(Cl)c(Cl)c2)c2ccc(-c3ccc4ncnn4c3)cc21 (single isomer, unassigned) [Compound 12B, 7-([1,2,4]triazolo[1,5-a]pyridin-6-yl)-4-(3,4-dichlorophenyl)-1,2,3,4-tetrahydroisoquinoline-1,1-d2]","DAT, %inhibition 10 nM",[1],0%
same,"DAT, %inhibition 100 nM",[1],74%
same,"NET, %inhibition 10 nM",[2]; 10 nM compound,44%
same,"NET, %inhibition 100 nM",[2]; 100 nM compound,74%
NC(=O)C[S+]([O-])C(c1ccccc1)c1ccccc1 (centres unmarked) [modafinil],DAT occupancy,DAT; at various approved doses,51-57%
CC(NC(C)(C)C)C(=O)c1cccc(Cl)c1 (centres unmarked) [Bupropion],Lowest Occupancy DAT,DAT; at efficacious doses,14% (Bupropion)
same,DAT occupancy,DAT; at various approved doses,14-26%
"[2H]C1([2H])NCC(c2ccc(Cl)c(Cl)c2)c2ccc(-c3ccc4ncnn4c3)cc21 (single isomer, unassigned) [Compound 12A, 7-([1,2,4]triazolo[1,5-a]pyridin-6-yl)-4-(3,4-dichlorophenyl)-1,2,3,4-tetrahydroisoquinoline-1,1-d2]","DAT, %inhibition 10 nM",[1],53%
same,inhibition at 0.1 µM,[1],92%
"[2H]C1([2H])NC([2H])([2H])C([2H])(c2ccc(Cl)c(Cl)c2)c2ccc(-c3ccc4ncnn4c3)cc21 (single isomer, unassigned) [Compound 8B, 7-([1,2,4]triazolo[1,5-a]pyridin-6-yl)-4-(3,4-dichlorophenyl)-1,2,3,4-tetrahydroisoquinoline-1,1,3,3,4-d5]","DAT, %inhibition 10 nM",[1],4%
same,"DAT, %inhibition 100 nM",[1],75%
same,"NET, %inhibition 10 nM",[2]; 10 nM compound,37%
same,"NET, %inhibition 100 nM",[2]; 100 nM compound,71%

# Source: US20230084144A1, “THERAPEUTIC COMBINATIONS OF DRUGS AND METHODS OF USING THEM” (ConSynance Therapeutics, Inc., priority 2020, published 2023)
